Test results published in patent publication USRE40086E1, “Method for treating bacterial infection with novel 7-substituted-9-substituted amino 6-demethyl-6-deoxytetracyclines” (Wyeth Holdings Corporation, priority 1991, dated 2008).
Structures can show the parent of a compound that is named as a salt. Where two headings read alike, the source gives them in different places.

Columns and labels:
[1] = test system: Enterococcus spp. Vancomycin-resistant; test: MIC vs recent clinical and agricultural isolates (Table V, KK); format: cell-based; conditions: [8] tested
[2] = test system: Bacteroides fragilis; test: as above; format: cell-based; conditions: [11] tested
[3] = test system: E. coli UBMS 89-2 (Sensitive); test: MIC, agar dilution; format: cell-based
[4] = test system: Escherichia coli (Agricultural); test: MIC vs recent clinical and agricultural isolates (Table V, KK); format: cell-based; conditions: [15] tested
[5] = test system: E. coli UBMS 89-1 (tetM); test: MIC, agar dilution; format: cell-based
[6] = test system: Clostridium perfringens; format: cell-based; conditions: [16] tested
[7] = test system: Klebsiella oxytoca; test: MIC vs recent clinical and agricultural isolates (Table V, KK); format: cell-based; conditions: [10] tested
[8] = test system: E. coli UBMS 90-4 (tetM); test: MIC, agar dilution; format: cell-based
[9] = test system: Serratia mercescens; test: MIC vs recent clinical and agricultural isolates (Table V, KK); format: cell-based; conditions: [10] tested
[10] = test system: Clostridium difficile; test: as above; format: cell-based; conditions: [12] tested
[11] = test system: Xanthomonas maltophilia; test: as above; format: cell-based; conditions: [10] tested
[12] = test system: Proteus vulgaris; test: as above; format: cell-based; conditions: [18] tested
[13] = test system: Neisseria gonorrhoeae; test: as above; format: cell-based; conditions: [14] tested
[14] = test system: Escherichia coli UBMS 90-4 (Tet-M); test: In vivo antibacterial evaluation, acute lethal infection in mice
[15] = test system: Staphylococcus Coagulase-negative, methicillin-susceptible; test: MIC vs recent clinical and agricultural isolates (Table V, KK); format: cell-based; conditions: [16] tested
[16] = test system: E. faecalis ATCC 29212; test: MIC, agar dilution; format: cell-based; conditions: E. faecalis ATCC 29212
[17] = test system: S. aureus UBMS 90-3 (Sensitive); test: MIC, agar dilution; format: cell-based
[18] = test system: Citrobacter diversus; test: MIC vs recent clinical and agricultural isolates (Table V, KK); format: cell-based; conditions: [10] tested
[19] = test system: Proteus mirabilis; test: as above; format: cell-based; conditions: [26] tested
[20] = test system: E. coli ATCC 25922; test: MIC, agar dilution; format: cell-based
[21] = test system: Enterobacter cloacae; test: MIC vs recent clinical and agricultural isolates (Table V, KK); format: cell-based; conditions: [10] tested
[22] = test system: S. aureus ATCC 29213 (Sensitive); test: MIC, agar dilution; format: cell-based
[23] = test system: Bacteroides spp.; test: MIC vs recent clinical and agricultural isolates (Table V, KK); format: cell-based; conditions: [9] tested
[24] = test system: Bordetella bronchiseptica (Agricultural); test: as above; format: cell-based; conditions: [10] tested
[25] = test system: Anaerobic Gram (+) Cocci; test: as above; format: cell-based; conditions: [15] tested
[26] = test system: S. haemolyticus AVAH 88-3; test: MIC, agar dilution; format: cell-based
[27] = test system: S. aureus Smith (Sensitive); test: MIC, agar dilution; format: cell-based
[28] = test system: Streptococcus pyogenes; test: MIC vs recent clinical and agricultural isolates (Table V, KK); format: cell-based; conditions: [10] tested
[29] = test system: Streptococcus agalactiae; test: as above; format: cell-based; conditions: [10] tested
[30] = test system: Pseudomonas aeruginosa; test: as above; format: cell-based; conditions: [10] tested
[31] = test system: S. aureus UBMS 88-5 (tetM); test: MIC, agar dilution; format: cell-based; conditions: for MIC: S. aureus UBMS 88-5 (tetM)
[32] = test system: S. aureus UBMS 90-2 (tetM); test: MIC, agar dilution; format: cell-based; conditions: for MIC: S. aureus UBMS 90-2 (tetM)
[33] = test system: Bacertoides fragilis group; test: MIC vs recent clinical and agricultural isolates (Table V, KK); format: cell-based; conditions: [10] tested
[34] = test system: Staphylococcus aureus, methicillin-resistant; test: as above; format: cell-based; conditions: [15] tested
[35] = test system: Streptococcus pneumoniae; test: as above; format: cell-based; conditions: [10] tested
[36] = test system: Pasturella multocida (Agricultural & Clinical); test: as above; format: cell-based; conditions: [17] tested
[37] = test system: Moraxella catarrhalis; test: as above; format: cell-based; conditions: [18] tested
[38] = test system: E. coli UBMS 88-1 (tetB); test: MIC, agar dilution; format: cell-based; conditions: for MIC: E. coli UBMS 88-1 (tetB)
[39] = test system: S. aureus UBMS 88-4 (Sensitive); test: MIC, agar dilution; format: cell-based
[40] = test system: Enterobacter aerogenes; test: MIC vs recent clinical and agricultural isolates (Table V, KK); format: cell-based; conditions: [10] tested
[41] = test system: Listeria monocytogenes; test: as above; format: cell-based; conditions: [8] tested
[42] = test system: S. aureus SMITH (sens); test: In vivo antibacterial evaluation, acute lethal infection in mice
Excerpt: In Vivo Antibacterial Evaluation (Table VII)

[43] = test system: Kiebsiella pneumoniae; test: MIC vs recent clinical and agricultural isolates (Table V, KK); format: cell-based; conditions: [10] tested
[44] = test system: Staphylococcus aureus, methicillin-susceptible; test: as above; format: cell-based; conditions: [15] tested
[45] = test system: Enterococcus faecalis; test: as above; format: cell-based; conditions: [10] tested

CN(C)c1ccc(O)c2c1C[C@H]1C[C@H]3[C@H](N(C)C)C(O)=C(C(N)=O)C(=O)[C@@]3(O)C(O)=C1C2=O [Compound O, 7-(Dimethylamino)-6-demethyl-6-deoxytetracycline hydrochloride (minocycline hydrochloride), reference compound]
MIC (range over isolates) [1]: 0.03 to 16 µg/mL
MIC (range over isolates) [2]: <0.008 to 16 µg/mL
MIC ([3]; Escherichia coli, E. coli UBMS 89-2 (Sensitive), read-out: MIC): 0.5 µg/mL
MIC (range over isolates) [4]: 1 to 16 µg/mL
MIC ([5]; Escherichia coli): 16 µg/mL
MIC (range over isolates) [6]: >0.008 to 16 µg/mL
MIC (range over isolates) [7]: 0.5 to 4 µg/mL
MIC ([8]; Escherichia coli): 64 µg/mL
MIC (range over isolates) [9]: 1 to 8 µg/mL
MIC (range over isolates) [10]: 0.015 to 16 µg/mL
MIC (range over isolates) [11]: 0.12 to 1 µg/mL
MIC (range over isolates) [12]: 0.5 to 16 µg/mL
MIC (range over isolates) [13]: 0.5 to 64 µg/mL
ED50 ([14]; Escherichia coli, in Mus musculus, iv): > 32 mg/kg
MIC (range over isolates) [15]: 0.03 to 1 µg/mL
MIC ([16]; Enterococcus faecalis, ATCC29212, read-out: MIC): 0.5 µg/mL
MIC ([17]; Staphylococcus aureus, S. aureus UBMS 90-3 (Sensitive), read-out: MIC): ≤ 0.015 µg/mL
MIC (range over isolates) [18]: 0.25 to 4 µg/mL
MIC (range over isolates) [19]: 1 to 32 µg/mL
MIC ([20]; E. coli ATCC 25922, hydrochloride): 0.5 µg/mL
MIC ([20]; Escherichia coli, ATCC25922, E. coli ATCC 25922, read-out: MIC): 0.25 µg/mL
MIC (range over isolates) [21]: 0.25 to 4 µg/mL
MIC ([22]; Staphylococcus aureus, ATCC29213, S. aureus ATCC 29213 (Sensitive), read-out: MIC): ≤ 0.015 µg/mL
MIC (range over isolates) [23]: 0.03 to 16 µg/mL
MIC (range over isolates) [24]: 0.06 to 0.12 µg/mL
MIC (range over isolates) [25]: 0.05 to 8 µg/mL
MIC ([26]; S. haemolyticus AVAH 88-3, hydrochloride): 0.06 µg/mL
MIC ([26]; Staphylococcus haemolyticus, AVAH883, S. haemolyticus AVAH 88-3, read-out: MIC): 0.03 µg/mL
MIC ([27]; Staphylococcus aureus, S. aureus Smith (Sensitive), read-out: MIC): ≤ 0.015 µg/mL
MIC (range over isolates) [28]: 0.03 to 2 µg/mL
MIC (range over isolates) [29]: 0.12 to 16 µg/mL
MIC (range over isolates) [30]: 1 to 16 µg/mL
MIC ([31]; hydrochloride): 4 µg/mL
MIC ([31]; Staphylococcus aureus): 2 µg/mL
MIC ([32]; hydrochloride): 1 µg/mL
MIC ([32]; Staphylococcus aureus): 2 µg/mL
MIC (range over isolates) [33]: <0.008 to 4 µg/mL
MIC (range over isolates) [34]: 0.06 to 4 µg/mL
MIC (range over isolates) [35]: 0.06 to 0.5 µg/mL
MIC (range over isolates) [36]: 0.015 to 4 µg/mL
MIC (range over isolates) [37]: 0.03 to 0.12 µg/mL
MIC ([38]; hydrochloride): 16 µg/mL
MIC ([38]; Escherichia coli): 8 µg/mL
MIC ([39]; Staphylococcus aureus, S. aureus UBMS 88-4 (Sensitive), read-out: MIC): ≤ 0.015 µg/mL
MIC (range over isolates) [40]: 0.5 to 1 µg/mL
MIC (range over isolates) [41]: 0.015 to 0.03 µg/mL
ED50 ([42]; Staphylococcus aureus, Oral, read-out: ED50): 0.74 mg/kg
ED50 ([42]; Staphylococcus aureus, iv, Intraveneous, read-out: ED50): 0.37 mg/kg
MIC (range over isolates) [43]: 0.5 to 8 µg/mL
MIC (range over isolates) [44]: 0.03 to 0.12 µg/mL
MIC (range over isolates) [45]: 0.03 to 16 µg/mL

CN(C)CC(=O)Nc1cc(N(C)C)c2c(c1O)C(=O)C1=C(O)[C@]3(O)C(=O)C(C(N)=O)=C(O)[C@@H](N(C)C)C3CC1C2.Cl.Cl (stereo partly drawn) [KK, [4S-(4alpha,12aalpha)]-4,7-Bis(dimethylamino)-9-[[(dimethylamino)acetyl]amino]-1,4,4a,5,5a,6,11,12a-octahydro-3,10,12,12a-tetrahydroxy-1,11-dioxo-2-naphthacenecarboxamide dihydrochloride]
MIC (range over isolates) [1]: 0.015 to 0.06 µg/mL
MIC (range over isolates) [2]: 0.06 to 0.2 µg/mL
Antibacterial activity (MIC) ([3]; E. coli UBMS 89-2 Tet Sens., Table IA, unit assumed): 0.25 µg/mL
MIC (range over isolates) [4]: 0.12 to 4 µg/mL
Antibacterial activity (MIC) ([5]; E. coli UBMS 89-1 TetM, Table IA, unit assumed): 0.12 µg/mL
MIC (range over isolates) [6]: 0.03 to 1 µg/mL
MIC (range over isolates) [7]: 0.5 to 1 µg/mL
Antibacterial activity (MIC) ([8]; E. coli UBMS 90-4 TetM, Table IA, unit assumed): 0.25 µg/mL
MIC (range over isolates) [9]: 2 to 8 µg/mL
MIC (range over isolates) [10]: 0.03 µg/mL
MIC (range over isolates) [11]: 0.5 to 2 µg/mL
MIC (range over isolates) [12]: 0.5 to 4 µg/mL
MIC (range over isolates) [13]: 0.25 to 1 µg/mL
ED50 ([14]; mice, Escherichia coli UBMS 90-4 (Tet-M), Intraveneous): 2.49 mg/kg
MIC (range over isolates) [15]: 0.12 to 8 µg/mL
Antibacterial activity (MIC) ([16]; Table IA, unit assumed): 0.06 µg/mL
Antibacterial activity (MIC) ([17]; S. aureus UBMS 90-3, Table IA, unit assumed): 0.03 µg/mL
MIC (range over isolates) [18]: 0.25 to 1 µg/mL
MIC (range over isolates) [19]: 1 to 32 µg/mL
Antibacterial activity (MIC) ([20]; E. coli ATCC 25922, Table IA, unit assumed): 0.25 µg/mL
MIC (range over isolates) [21]: 0.5 to 1 µg/mL
Antibacterial activity (MIC) ([22]; S. aureus ATCC 29213, Table IA): ≦0.015
MIC (range over isolates) [23]: 0.03 to 1 µg/mL
MIC (range over isolates) [24]: 0.12 µg/mL
MIC (range over isolates) [25]: 0.015 to 0.06 µg/mL
Antibacterial activity (MIC) ([26]; S. hemolyticus AVHAH 88-3, Table IA, unit assumed): 0.12 µg/mL
Antibacterial activity (MIC) ([27]; S. aureus SMITH (MP), Table IA, unit assumed): 0.06 µg/mL
MIC (range over isolates) [28]: 0.06 to 0.12 µg/mL
MIC (range over isolates) [29]: 0.06 to 0.25 µg/mL
MIC (range over isolates) [30]: 1 to 16 µg/mL
Antibacterial activity (MIC) ([31]; S. aureus UBMS 88-5 TetM, Table IA, unit assumed): 0.25 µg/mL
Antibacterial activity (MIC) ([32]; S. aureus UBMS 90-2 TetM, Table IA, unit assumed): 0.12 µg/mL
MIC (range over isolates) [33]: 0.06 to 2 µg/mL
MIC (range over isolates) [34]: 0.12 to 2 µg/mL
MIC (range over isolates) [35]: 0.03 to 0.25 µg/mL
MIC (range over isolates) [36]: 0.03 to 0.25 µg/mL
MIC (range over isolates) [37]: 0.06 to 0.12 µg/mL
Antibacterial activity (MIC) ([38]; E. coli UBMS 88-1 TetB, Table IA, unit assumed): 0.25 µg/mL
Antibacterial activity (MIC) ([39]; S. aureus UBMS 88-4, Table IA, unit assumed): 0.12 µg/mL
MIC (range over isolates) [40]: 0.5 to 1 µg/mL
MIC (range over isolates) [41]: 0.06 to 0.12 µg/mL
ED50 ([42]; Oral): 8 to 16 mg/kg
MIC (range over isolates) [43]: 0.25 to 8 µg/mL
MIC (range over isolates) [44]: 0.12 to 0.25 µg/mL
MIC (range over isolates) [45]: 0.015 to 0.12 µg/mL
